Test results from PubChem BioAssay AID308 (DTP/NCI, 2004).
Values joined by “and” are separate entries in the source; they are usually repeats but may differ in a detail not shown here. Identical values can stand only once. Toxic doses and inconclusive results are not listed.

Test system: BDF1 mice, L1210 6-MP/6-TG resistant leukemia ip, survival T/C
Assay: NCI In Vivo Anticancer Drug Screen. Data for tumor model L1210 Leukemia resistant to 6-MP and 6-Thioguanine; NSC 755, NSC 752 (intraperitoneal) in B6D2F1 (BDF1) mice
Conditions: endpoint: mean survival time, higher = longer survival
Protocol: The antitumor activity of compounds was measured in mice bearing transplantable tumors. Survival or tumor size were measured and the results are expressed as the measurement made in the treated group (T) divided by the measurement made in the vehicle treated control group (C). The tumor model used in this assay is L1210 Leukemia resistant to 6-MP and 6-Thioguanine; NSC 755, NSC 752 (intraperitoneal) in B6D2F1 (BDF1) mice

[1] = dose: 1.87 mg/kg/injection, schedule: Q01DX Z (ip), vehicle: carboxymethylcellulose (CMC)
[2] = dose: 3.75 mg/kg/injection, schedule: Q01DX Z (ip), vehicle: carboxymethylcellulose (CMC)
[3] = dose: 7.5 mg/kg/injection, schedule: Q01DX Z (ip), vehicle: carboxymethylcellulose (CMC)
[4] = dose: 15.0 mg/kg/injection, schedule: Q01DX Z (ip), vehicle: carboxymethylcellulose (CMC)
[5] = dose: 2.5 mg/kg/injection, schedule: Q01DX Z (ip), vehicle: carboxymethylcellulose (CMC)
[6] = dose: 25.0 mg/kg/injection, schedule: Q01DX Z (ip), vehicle: carboxymethylcellulose (CMC)
[7] = dose: 12.5 mg/kg/injection, schedule: Q01DX015 (ip), vehicle: other
[8] = dose: 25.0 mg/kg/injection, schedule: Q01DX015 (ip), vehicle: other

CCCCNc1ncnc2c1cnn2C
T/C (dose: 2.5 mg/kg/injection, schedule: Q01DX Z (ip), vehicle: saline): 105 % of control
T/C (dose: 5.0 mg/kg/injection, schedule: Q01DX Z (ip), vehicle: saline): 105 % of control
T/C (dose: 10.0 mg/kg/injection, schedule: Q01DX Z (ip), vehicle: saline): 105 % of control
T/C (dose: 20.0 mg/kg/injection, schedule: Q01DX Z (ip), vehicle: saline): 104 % of control
T/C (dose: 31.0 mg/kg/injection, schedule: Q01DX Z (ip), vehicle: saline): 119 % of control
T/C (dose: 62.5 mg/kg/injection, schedule: Q01DX Z (ip), vehicle: saline): 104 % of control
T/C (dose: 125.0 mg/kg/injection, schedule: Q01DX Z (ip), vehicle: saline): 95 % of control

O=C(Nc1ccc(C2=NCCCN2)cc1)c1ccc(C(=O)Nc2ccc(C3=NCCCN3)cc2)cc1
T/C (dose: 0.46 mg/kg/injection, schedule: Q01DX Z (ip), vehicle: carboxymethylcellulose (CMC)): 106 % of control
T/C [1]: 178 % of control
T/C [2]: 154 % of control and 195 % of control
T/C [3]: 155 % of control
T/C [4]: 113 % of control

CCCn1cnc2c(=S)nc[nH]c21
T/C (dose: 12.5 mg/kg/injection, schedule: Q01DX015 (ip), vehicle: carboxymethylcellulose (CMC)): 97 % of control
T/C (dose: 25.0 mg/kg/injection, schedule: Q01DX015 (ip), vehicle: carboxymethylcellulose (CMC)): 95 % of control
T/C (dose: 50.0 mg/kg/injection, schedule: Q01DX015 (ip), vehicle: carboxymethylcellulose (CMC)): 101 % of control
T/C (dose: 100.0 mg/kg/injection, schedule: Q01DX015 (ip), vehicle: carboxymethylcellulose (CMC)): 96 % of control

S=P(N1CCOCC1)(N1CC1)N1CC1
T/C [1]: 90 % of control
T/C [5]: 93 % of control
T/C [2]: 151 % of control
T/C (dose: 5.0 mg/kg/injection, schedule: Q01DX Z (ip), vehicle: carboxymethylcellulose (CMC)): 117 % of control
T/C [3]: 116 % of control
T/C (dose: 12.5 mg/kg/injection, schedule: Q01DX Z (ip), vehicle: carboxymethylcellulose (CMC)): 109 % of control
T/C [4]: 118 % of control

CC(=O)Nc1ccc2nc3ccc(NC(C)=O)cc3[n+](-c3ccccc3)c2c1
T/C (dose: 1.25 mg/kg/injection, schedule: Q01DX Z (ip), vehicle: carboxymethylcellulose (CMC)): 95 % of control
T/C [5]: 103 % of control
T/C [3]: 154 % of control
T/C [6]: 202 % of control
T/C (dose: 50.0 mg/kg/injection, schedule: Q01DX Z (ip), vehicle: carboxymethylcellulose (CMC)): 176 % of control
T/C (dose: 75.0 mg/kg/injection, schedule: Q01DX Z (ip), vehicle: carboxymethylcellulose (CMC)): 180 % of control
T/C (dose: 100.0 mg/kg/injection, schedule: Q01DX Z (ip), vehicle: carboxymethylcellulose (CMC)): 121 % of control
T/C (dose: 200.0 mg/kg/injection, schedule: Q01DX Z (ip), vehicle: carboxymethylcellulose (CMC)): 150 % of control
T/C (dose: 300.0 mg/kg/injection, schedule: Q01DX Z (ip), vehicle: carboxymethylcellulose (CMC)): 122 % of control

Cc1cc(N(CCCl)CCCl)ccc1N=Nc1ccccc1C(=O)O
T/C (dose: 4.5 mg/kg/injection, schedule: Q01DX Z (ip), vehicle: carboxymethylcellulose (CMC)): 119 % of control
T/C (dose: 9.0 mg/kg/injection, schedule: Q01DX Z (ip), vehicle: carboxymethylcellulose (CMC)): 124 % of control
T/C (dose: 18.75 mg/kg/injection, schedule: Q01DX Z (ip), vehicle: carboxymethylcellulose (CMC)): 114 % of control
T/C [6]: 123 % of control
T/C (dose: 37.5 mg/kg/injection, schedule: Q01DX Z (ip), vehicle: carboxymethylcellulose (CMC)): 90 % of control

Nc1ccc(C(=O)NO)cc1
T/C (dose: 112.5 mg/kg/injection, schedule: Q01DX015 (ip), vehicle: carboxymethylcellulose (CMC)): 102 % of control
T/C (dose: 225.0 mg/kg/injection, schedule: Q01DX015 (ip), vehicle: carboxymethylcellulose (CMC)): 91 % of control
T/C (dose: 450.0 mg/kg/injection, schedule: Q01DX015 (ip), vehicle: carboxymethylcellulose (CMC)): 90 % of control
T/C (dose: 900.0 mg/kg/injection, schedule: Q01DX015 (ip), vehicle: carboxymethylcellulose (CMC)): 97 % of control

CC(C)Cn1cnc2c(Sc3c([N+](=O)[O-])ncn3C)nc(N)nc21
T/C (dose: 1.0 mg/kg/injection, schedule: Q01DX015 (ip), vehicle: other): 94 % of control
T/C (dose: 2.0 mg/kg/injection, schedule: Q01DX015 (ip), vehicle: other): 92 % of control
T/C (dose: 8.0 mg/kg/injection, schedule: Q01DX015 (ip), vehicle: other): 95 % of control
T/C [7]: 100 % of control
T/C [8]: 97 % of control
T/C (dose: 50.0 mg/kg/injection, schedule: Q01DX015 (ip), vehicle: other): 90 % of control

O=C(Nc1ccc(C2=NCCCN2)cc1)c1ccc(NC(=O)c2ccc(C3=NCCCN3)cc2)cc1
T/C (dose: 0.75 mg/kg/injection, schedule: Q01DX Z (ip), vehicle: carboxymethylcellulose (CMC)): 113 % of control
T/C (dose: 1.5 mg/kg/injection, schedule: Q01DX Z (ip), vehicle: carboxymethylcellulose (CMC)): 116 % of control
T/C (dose: 3.0 mg/kg/injection, schedule: Q01DX Z (ip), vehicle: carboxymethylcellulose (CMC)): 272 % of control
T/C (dose: 4.0 mg/kg/injection, schedule: Q01DX Z (ip), vehicle: carboxymethylcellulose (CMC)): 235 % of control
T/C (dose: 6.0 mg/kg/injection, schedule: Q01DX Z (ip), vehicle: carboxymethylcellulose (CMC)): 185 % of control
T/C (dose: 16.0 mg/kg/injection, schedule: Q01DX Z (ip), vehicle: carboxymethylcellulose (CMC)): 106 % of control

O=CCC(O)C(O)C(O)CO (stereo not given)
T/C (dose: 375.0 mg/kg/injection, schedule: Q01DX Z (ip), vehicle: saline): 113 % of control
T/C (dose: 500.0 mg/kg/injection, schedule: Q01DX Z (ip), vehicle: saline): 113 % of control
T/C (dose: 750.0 mg/kg/injection, schedule: Q01DX Z (ip), vehicle: saline): 116 % of control
T/C (dose: 1000.0 mg/kg/injection, schedule: Q01DX Z (ip), vehicle: saline): 123 % of control

S=c1nc[nH]c2c1ncn2CN1CCCCC1
T/C (dose: 50.0 mg/kg/injection, schedule: Q01DX009 (ip), vehicle: other): 94 % of control

O=C1C(NC(=O)C2CCCCC2)=C(N2CC2)C(=O)C(NC(=O)C2CCCCC2)=C1N1CC1
T/C (dose: 31.0 mg/kg/injection, schedule: Q01DX Z (ip), vehicle: carboxymethylcellulose (CMC)): 99 % of control
T/C (dose: 62.5 mg/kg/injection, schedule: Q01DX Z (ip), vehicle: carboxymethylcellulose (CMC)): 101 % of control
T/C (dose: 93.0 mg/kg/injection, schedule: Q01DX Z (ip), vehicle: carboxymethylcellulose (CMC)): 93 % of control
T/C (dose: 125.0 mg/kg/injection, schedule: Q01DX Z (ip), vehicle: carboxymethylcellulose (CMC)): 87 % of control
T/C (dose: 187.0 mg/kg/injection, schedule: Q01DX Z (ip), vehicle: carboxymethylcellulose (CMC)): 92 % of control
T/C (dose: 250.0 mg/kg/injection, schedule: Q01DX Z (ip), vehicle: carboxymethylcellulose (CMC)): 90 % of control

CSc1ncnc2c1ncn2C1CC(O)C(CO)O1 (stereo not given)
T/C (dose: 32.0 mg/kg/injection, schedule: Q## X032 (ip), vehicle: saline): 105 % of control
T/C (dose: 48.0 mg/kg/injection, schedule: Q## X032 (ip), vehicle: saline): 96 % of control
T/C (dose: 72.0 mg/kg/injection, schedule: Q## X032 (ip), vehicle: saline): 107 % of control

O=C(Nc1ccc(C2=NCCN2)cc1)c1cccc(C(=O)Nc2ccc(C3=NCCN3)cc2)c1
T/C (dose: 2.5 mg/kg/injection, schedule: Q01DX Z (ip), vehicle: water): 110 % of control
T/C (dose: 10.0 mg/kg/injection, schedule: Q01DX Z (ip), vehicle: water): 300 % of control
T/C (dose: 20.0 mg/kg/injection, schedule: Q01DX Z (ip), vehicle: water): 187 % of control

O=C(OCC1OC(n2cnc3c(=S)nc[nH]c32)C(OC(=O)c2ccc([N+](=O)[O-])cc2)C1OC(=O)c1ccc([N+](=O)[O-])cc1)c1ccc([N+](=O)[O-])cc1 (stereo not given)
T/C (dose: 6.25 mg/kg/injection, schedule: Q01DX015 (ip), vehicle: other): 94 % of control
T/C [7]: 105 % of control
T/C [8]: 88 % of control
T/C (dose: 50.0 mg/kg/injection, schedule: Q01DX Z (ip), vehicle: other): 92 % of control
T/C (dose: 400.0 mg/kg/injection, schedule: Q01DX Z (ip), vehicle: other): 86 % of control
